From patent publication US10376520B2, “Methods for the treatment of cardiovascular disorders” (Galapagos NV, priority 2015, dated 2019)

System: RA patients
Experiment: Plasma Serum Amyloid A (SAA) concentration (ELISA), Study 4
Assay type: in vivo, human
Conditions: for SAA level, 4 weeks CFB: 4 weeks change from baseline
Method: Randomized double-blind, placebo-controlled add on study in subjects with active RA who have an inadequate response to MTX monotherapy, in combination with methotrexate, administered for 4 weeks in the treatment of subjects with active rheumatoid arthritis who have an inadequate response to methotrexate alone.
Compound 1 (dosed as a [Compound 1:HCl:3H2O]) capsules administered orally in 30 mg, 75 mg, 150 mg, or 300 mg doses per day for 4 weeks.
Plasma SAA concentration was determined using a commercial available Novex ELISA kit from Life technologies (Bleiswijk, The Netherlands) according to manufacturer's instruction. Catalogue number KHA0011, lot number used: 1433688A.

SMILES: O=C(Nc1nc2cccc(-c3ccc(CN4CCS(=O)(=O)CC4)cc3)n2n1)C1CC1 [Compound 1, cyclopropanecarboxylic acid {5-[4-(1,1-dioxo-thiomorpholin-4-ylmethyl)-phenyl]-[1,2,4]triazolo[1,5-a]pyridin-2yl}-amide]
- SAA level, 4 weeks CFB (30 mg q.d.): −15.4%
- SAA level, Baseline (30 mg q.d.): 935.4 ng/mL
- SAA level, week 4 (30 mg q.d.): 436.2 ng/mL
- SAA level, 4 weeks CFB (75 mg q.d.): −13.5%
- SAA level, Baseline (75 mg q.d.): 883.7 ng/mL
- SAA level, week 4 (75 mg q.d.): 201.3 ng/mL
- SAA level, 4 weeks CFB (150 mg q.d.): −56.7%
- SAA level, Baseline (150 mg q.d.): 621.3 ng/mL
- SAA level, week 4 (150 mg q.d.): 388.5 ng/mL
- SAA level, 4 weeks CFB (300 mg q.d.): −62.0%
- SAA level, Baseline (300 mg q.d.): 555.6 ng/mL
- SAA level, week 4 (300 mg q.d.): 43.2 ng/mL
